Measurements: PubChem BioAssay AID2060906 (Molecular Pharmacology Branch, DTP, NCI, 2025)
Values belong to the molecule of their own block, whether it stands above or below them.

System: 485176-168-R4-J1-PDC complex spheroid growth
Assay: Anticancer human tumor 485176-168-R4-J1-PDC patient-derived pancreatic adenocarcinoma cell line growth inhibition [RAS]
Conditions: for IC50: curve of first compound; for viability, T/C: stronger effect = lower value
Procedure, shortened: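 Agents were tested in combination matrices in half-log decrements from a top concentration at or near clinical Cmax (10 microM if undetermined). Targets were multi-cell spheroids of tumour lines plus HUVEC and MSC stromal cells.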

[1] = second compound 0.000949 µM, first compound 0.0316 µM
[2] = second compound 0.000949 µM, first compound 0.1 µM
[3] = second compound 0.000949 µM, first compound 0.316 µM
[4] = second compound 0.000949 µM, first compound 1 µM
[5] = second compound 0.000949 µM, first compound 3.16 µM
[6] = second compound 0.000949 µM, first compound 10 µM
[7] = second compound 0.003 µM, first compound 0.0316 µM
[8] = second compound 0.003 µM, first compound 0.1 µM
[9] = second compound 0.003 µM, first compound 0.316 µM
[10] = second compound 0.003 µM, first compound 1 µM
[11] = second compound 0.003 µM, first compound 3.16 µM
[12] = second compound 0.003 µM, first compound 10 µM
[13] = second compound 0.00949 µM, first compound 0.0316 µM
[14] = second compound 0.00949 µM, first compound 0.1 µM
[15] = second compound 0.00949 µM, first compound 0.316 µM
[16] = second compound 0.00949 µM, first compound 1 µM
[17] = second compound 0.00949 µM, first compound 3.16 µM
[18] = second compound 0.00949 µM, first compound 10 µM
[19] = second compound 0.03 µM, first compound 0.0316 µM
[20] = second compound 0.03 µM, first compound 0.1 µM
[21] = second compound 0.03 µM, first compound 0.316 µM
[22] = second compound 0.03 µM, first compound 1 µM
[23] = second compound 0.03 µM, first compound 3.16 µM
[24] = second compound 0.03 µM, first compound 10 µM
[25] = second compound 0.0949 µM, first compound 0.0316 µM
[26] = second compound 0.0949 µM, first compound 0.1 µM
[27] = second compound 0.0949 µM, first compound 0.316 µM
[28] = second compound 0.0949 µM, first compound 1 µM
[29] = second compound 0.0949 µM, first compound 3.16 µM
[30] = second compound 0.0949 µM, first compound 10 µM
[31] = second compound 0.3 µM, first compound 0.0316 µM
[32] = second compound 0.3 µM, first compound 0.1 µM
[33] = second compound 0.3 µM, first compound 0.316 µM
[34] = second compound 0.3 µM, first compound 1 µM
[35] = second compound 0.3 µM, first compound 3.16 µM
[36] = second compound 0.3 µM, first compound 10 µM
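Note: spheroids exposed to compounds for seven days before readout.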
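Throughout, for viability, T/C: luminescence viability expressed relative to DMSO vehicle wells set as 100%.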

IC50 (second compound 0.000949 µM): 2330 nM
IC50 (second compound 0.003 µM): 3710 nM
IC50 (second compound 0.00949 µM): 1650 nM
IC50 (second compound 0.03 µM): 847 nM
IC50 (second compound 0.0949 µM): 721 nM
IC50 (second compound 0.3 µM): 790 nM
SMILES: CC(C)NCC(C(=O)N1CCN(c2ncnc3c2C(C)CC3O)CC1)c1ccc(Cl)cc1 (centres undefined) + CCn1c(-c2cc(N3CCN(C)CC3)cnc2C(C)OC)c2c3cc(ccc31)-c1csc(n1)CC(NC(=O)C1CC1C)C(=O)N1CCCC(N1)C(=O)OCC(C)(C)C2
viability, T/C [1]: 116%
viability, T/C [2]: 99.5%
viability, T/C [3]: 78.7%
viability, T/C [4]: 64.8%
viability, T/C [5]: 43.6%
viability, T/C [6]: 33%
viability, T/C [7]: 82.2%
viability, T/C [8]: 101%
viability, T/C [9]: 74.3%
viability, T/C [10]: 65%
viability, T/C [11]: 55.1%
viability, T/C [12]: 38.8%
viability, T/C [13]: 97.9%
viability, T/C [14]: 79.7%
viability, T/C [15]: 82.4%
viability, T/C [16]: 56.8%
viability, T/C [17]: 38.7%
viability, T/C [18]: 32.3%
viability, T/C [19]: 94.7%
viability, T/C [20]: 73.8%
viability, T/C [21]: 81.2%
viability, T/C [22]: 44.4%
viability, T/C [23]: 40.5%
viability, T/C [24]: 31.7%
viability, T/C [25]: 81.3%
viability, T/C [26]: 67.9%
viability, T/C [27]: 70.3%
viability, T/C [28]: 41.3%
viability, T/C [29]: 35.5%
viability, T/C [30]: 26.8%
viability, T/C [31]: 72.2%
viability, T/C [32]: 72.1%
viability, T/C [33]: 57.5%
viability, T/C [34]: 46.4%
viability, T/C [35]: 38.4%
viability, T/C [36]: 26.8%

IC50 (second compound 0.000949 µM): > 10000 nM
IC50 (second compound 0.003 µM): > 10000 nM
IC50 (second compound 0.00949 µM): 7940 nM
IC50 (second compound 0.03 µM): 7650 nM
IC50 (second compound 0.0949 µM): 2110 nM
IC50 (second compound 0.3 µM): > 10000 nM
SMILES: CC(Nc1ccc2c(c1)OCCn1cc(N3C(=O)OCC3C(F)F)nc1-2)C(N)=O (centres undefined) + CCn1c(-c2cc(N3CCN(C)CC3)cnc2C(C)OC)c2c3cc(ccc31)-c1csc(n1)CC(NC(=O)C1CC1C)C(=O)N1CCCC(N1)C(=O)OCC(C)(C)C2
viability, T/C [1]: 100%
viability, T/C [2]: 91.9%
viability, T/C [3]: 71.8%
viability, T/C [4]: 79.8%
viability, T/C [5]: 70.5%
viability, T/C [6]: 51.1%
viability, T/C [7]: 92.8%
viability, T/C [8]: 74.8%
viability, T/C [9]: 73.7%
viability, T/C [10]: 72%
viability, T/C [11]: 61.3%
viability, T/C [12]: 47%
viability, T/C [13]: 81.5%
viability, T/C [14]: 72.7%
viability, T/C [15]: 76.9%
viability, T/C [16]: 76.1%
viability, T/C [17]: 62.2%
viability, T/C [18]: 46.7%
viability, T/C [19]: 75.9%
viability, T/C [20]: 78.5%
viability, T/C [21]: 69.3%
viability, T/C [22]: 60.5%
viability, T/C [23]: 58%
viability, T/C [24]: 48.1%
viability, T/C [25]: 66.9%
viability, T/C [26]: 83.7%
viability, T/C [27]: 77.1%
viability, T/C [28]: 51.9%
viability, T/C [29]: 56.8%
viability, T/C [30]: 41.2%
viability, T/C [31]: 75.6%
viability, T/C [32]: 72.3%
viability, T/C [33]: 57.6%
viability, T/C [34]: 57.7%
viability, T/C [35]: 51.3%
viability, T/C [36]: 51.2%
